Data taken from patent US8652492B2, “Wet granulation using a water sequestering agent” (Rigel Pharmaceuticals, Inc., priority 2007, dated 2014).

Assay: Bulk density (uncompressed, untapped powder)
Assay type: physicochemical
Conditions: Compound 1 as synthesized, cotton like fluffy agglomerates
Method: As used herein, the term “bulk density” refers to the uncompressed, untapped powder bulk density, as measured by pouring an excess of powder sample through a funnel into a smooth metal vessel (e.g., a 500 mL volume cylinder), scraping off the excess from the heap above the rim of the vessel, measuring the remaining mass of powder and dividing the mass by the volume of the vessel.
Three 500 g batches of Compound 1 powder blends (see Table 3) were prepared according to the following method. A KG-5 High Shear Granulator with an 8-inch impeller diameter was used to preblend all ingredients (except magnesium stearate) at low (155 rpm), medium (405 rpm), or high (600 rpm) impeller speeds with the chopper speed of 1200 rpm for 2 minutes. Water was added at a rate of 30 to 31.5 g/min to the powder mix. After the full amount of water was added, the mixture was blended for an additional 2 minutes. The wet granules were dried with the MiniGlatt Fluid Bed Dryer at 60° C. to targeted LODs and the granule texture, size, shape, stickiness, etc visually inspected. Drying at various temperatures and times are evaluated also. […] The final blends were checked for degradation by HPLC, and physical properties determined such as, Bulk Density, Tapped Density, Carr's Index, Hausner Ratio and Flow Index by Flodex. […]

bulk density: 0.15 to 0.30 g/mL
SMILES: COc1cc(Nc2ncc(F)c(Nc3ccc4c(n3)N(COP(=O)([O-])[O-])C(=O)C(C)(C)O4)n2)cc(OC)c1OC.[Na+].[Na+] [Compound 1, (6-(5-fluoro-2-(3,4,5-trimethoxyphenylamino)pyrimidin-4-ylamino)-2,2-dimethyl-3-oxo-2H-pyrido[3,2-b][1,4]oxazin-4(3H)-yl)methyl phosphate disodium salt]
